Values joined by “and” are separate entries in the source; they are usually repeats but may differ in a detail not shown here. Equal values may be shown once.
System: Meerschweinchenherzen
Assay: Working guinea pig heart, ischaemia/reperfusion with activated PMN and platelets (Versuchsgruppe 1)
Parameters: species or system Meerschweinchen
Settings: for Herzleistung [% der initialen Leistung] / Interstitielles Volumen / Koronarfluß [% des Basalflusses]: flavone derivative 3*10^-5 M, individual hearts; for protektive Wirkung: ischaemic heart, Versuchsgruppe 1
Description: Pathogene Wirkung von gleichzeitig aktivierten PMN und Thrombozyten im ischämischen Herzen. Als Studienobjekt dienten arbeitende, also Volumen gegen bestimmte Drucke auswerfende Meerschweinchenherzen. […] Thrombin, FMLP ([…]-Formyl-[…]) und […] Interaktion der Blutzellen mit dem koronaren Endothel bei diesen Versuchen. Tabelle 3: ^i Als Blutzellpräparate wurden eingesetzt: a) hochreine PMN (1-2*10^5/ml), […] Vorinkubation mit 100 μM […]) bzw. […] von PMN und TASS (bzw. T) in jeweils analogen Konzentrationen. Tabelle 3 gibt die unter […] bei […] von PMN und Thrombozyten (TASS = […] Vorinkubation mit 100μM […] = nicht […].

[1] = PMN+T (platelets not preincubated with Acetylsalicylsäure)
[2] = PMN+TASS (platelets preincubated 1 h with 100 µM Acetylsalicylsäure, washed)
[3] = acute application of the flavonoid alone
[4] = flavonoid applied in combination with Acetylsalicylsäure

Dihydroxyethylrutosid
Herzleistung [% der initialen Leistung] [1]: 49 % der initialen Leistung and 58 % der initialen Leistung and 65 % der initialen Leistung and 72 % der initialen Leistung and 78 % der initialen Leistung and 74 % der initialen Leistung
Interstitielles Volumen [1]: 144 µL/g and 186 µL/g and 151 µL/g and 157 µL/g and 165 µL/g
Koronarfluß [% des Basalflusses] [1]: 49 % des Basalflusses and 51 % des Basalflusses and 39 % des Basalflusses and 47 % des Basalflusses and 64 % des Basalflusses and 69 % des Basalflusses
Herzleistung [% der initialen Leistung] [2]: 93 % der initialen Leistung and 94 % der initialen Leistung and 86 % der initialen Leistung and 84 % der initialen Leistung and 89 % der initialen Leistung
Interstitielles Volumen [2]: 98 µL/g and 104 µL/g and 95 µL/g and 115 µL/g and 107 µL/g and 109 µL/g
Koronarfluß [% des Basalflusses] [2]: 102 % des Basalflusses and 107 % des Basalflusses and 98 % des Basalflusses and 93 % des Basalflusses and 95 % des Basalflusses and 89 % des Basalflusses
Verschlechterung der postischämischen Funktionsdaten (ΔP/Δt; interstitielles Volumen; Koronarfluß) [3]: abgeschwächt
Verschlechterung der postischämischen Funktionsdaten (ΔP/Δt; interstitielles Volumen; Koronarfluß) [4]: vollständig aufgehoben

O=C1C[C@@H](c2ccc(O)cc2)Oc2cc(O)cc(O)c21 [Naringenin]
Herzleistung [% der initialen Leistung] [1]: 63 % der initialen Leistung and 49 % der initialen Leistung and 54 % der initialen Leistung and 69 % der initialen Leistung and 68 % der initialen Leistung
Interstitielles Volumen [1]: 169 µL/g and 175 µL/g and 189 µL/g and 205 µL/g and 198 µL/g
Koronarfluß [% des Basalflusses] [1]: 57 % des Basalflusses and 55 % des Basalflusses and 63 % des Basalflusses and 51 % des Basalflusses and 45 % des Basalflusses and 46 % des Basalflusses
Herzleistung [% der initialen Leistung] [2]: 90 % der initialen Leistung and 97 % der initialen Leistung and 84 % der initialen Leistung and 94 % der initialen Leistung and 82 % der initialen Leistung and 89 % der initialen Leistung
Interstitielles Volumen [2]: 98 µL/g and 117 µL/g and 107 µL/g and 109 µL/g and 102 µL/g
Koronarfluß [% des Basalflusses] [2]: 107 % des Basalflusses and 98 % des Basalflusses and 93 % des Basalflusses and 92 % des Basalflusses and 89 % des Basalflusses and 101 % des Basalflusses
Verschlechterung der postischämischen Funktionsdaten (ΔP/Δt; interstitielles Volumen; Koronarfluß) [3]: abgeschwächt
Verschlechterung der postischämischen Funktionsdaten (ΔP/Δt; interstitielles Volumen; Koronarfluß) [4]: vollständig aufgehoben

Catechin [reference compound]
Herzleistung [% der initialen Leistung] [1]: 36 % der initialen Leistung and 39 % der initialen Leistung and 31 % der initialen Leistung and 26 % der initialen Leistung and 18 % der initialen Leistung
Interstitielles Volumen [1]: 351 µL/g and 310 µL/g and 311 µL/g and 317 µL/g and 370 µL/g
Koronarfluß [% des Basalflusses] [1]: 37 % des Basalflusses and 27 % des Basalflusses and 34 % des Basalflusses and 17 % des Basalflusses and 14 % des Basalflusses and 28 % des Basalflusses
Herzleistung [% der initialen Leistung] [2]: 75 % der initialen Leistung and 68 % der initialen Leistung and 67 % der initialen Leistung and 81 % der initialen Leistung (2×) and 77 % der initialen Leistung
Interstitielles Volumen [2]: 145 µL/g and 157 µL/g and 163 µL/g and 148 µL/g and 166 µL/g
Koronarfluß [% des Basalflusses] [2]: 88 % des Basalflusses and 78 % des Basalflusses and 82 % des Basalflusses and 79 % des Basalflusses and 85 % des Basalflusses
protektive Wirkung: keine protektive Wirkung

O=C1CCOc2ccccc21 [4-Chromanon, reference compound]
Herzleistung [% der initialen Leistung] [1]: 27 % der initialen Leistung and 29 % der initialen Leistung and 38 % der initialen Leistung and 31 % der initialen Leistung and 17 % der initialen Leistung and 22 % der initialen Leistung
Interstitielles Volumen [1]: 373 µL/g and 348 µL/g and 354 µL/g and 318 µL/g and 356 µL/g
Koronarfluß [% des Basalflusses] [1]: 44 % des Basalflusses and 19 % des Basalflusses and 35 % des Basalflusses and 26 % des Basalflusses and 29 % des Basalflusses
Herzleistung [% der initialen Leistung] [2]: 79 % der initialen Leistung and 81 % der initialen Leistung and 74 % der initialen Leistung and 71 % der initialen Leistung and 69 % der initialen Leistung and 78 % der initialen Leistung
Interstitielles Volumen [2]: 155 µL/g and 148 µL/g and 168 µL/g and 161 µL/g and 165 µL/g
Koronarfluß [% des Basalflusses] [2]: 88 % des Basalflusses and 74 % des Basalflusses and 79 % des Basalflusses (2×) and 81 % des Basalflusses and 82 % des Basalflusses
protektive Wirkung: keine protektive Wirkung

O=c1c(O)c(-c2ccc(O)c(O)c2)oc2cc(O)cc(O)c12 [Quercetin]
Herzleistung [% der initialen Leistung] [1]: 66 % der initialen Leistung and 69 % der initialen Leistung and 58 % der initialen Leistung and 44 % der initialen Leistung and 70 % der initialen Leistung
Interstitielles Volumen [1]: 159 µL/g and 178 µL/g and 181 µL/g and 185 µL/g and 162 µL/g
Koronarfluß [% des Basalflusses] [1]: 61 % des Basalflusses and 49 % des Basalflusses (2×) and 55 % des Basalflusses and 62 % des Basalflusses and 40 % des Basalflusses
Herzleistung [% der initialen Leistung] [2]: 82 % der initialen Leistung and 86 % der initialen Leistung and 90 % der initialen Leistung and 85 % der initialen Leistung and 94 % der initialen Leistung
Interstitielles Volumen [2]: 108 µL/g and 113 µL/g and 107 µL/g and 104 µL/g and 125 µL/g and 118 µL/g
Koronarfluß [% des Basalflusses] [2]: 101 % des Basalflusses and 107 % des Basalflusses and 89 % des Basalflusses and 95 % des Basalflusses and 91 % des Basalflusses
Verschlechterung der postischämischen Funktionsdaten (ΔP/Δt; interstitielles Volumen; Koronarfluß) [3]: abgeschwächt
Verschlechterung der postischämischen Funktionsdaten (ΔP/Δt; interstitielles Volumen; Koronarfluß) [4]: vollständig aufgehoben

O=c1cc(-c2ccccc2)oc2ccccc12 [Flavon, reference compound]
Herzleistung [% der initialen Leistung] [1]: 31 % der initialen Leistung (2×) and 18 % der initialen Leistung and 35 % der initialen Leistung and 29 % der initialen Leistung
Interstitielles Volumen [1]: 344 µL/g and 389 µL/g and 388 µL/g and 358 µL/g and 346 µL/g
Koronarfluß [% des Basalflusses] [1]: 33 % des Basalflusses and 19 % des Basalflusses and 31 % des Basalflusses and 28 % des Basalflusses and 29 % des Basalflusses
Herzleistung [% der initialen Leistung] [2]: 78 % der initialen Leistung and 81 % der initialen Leistung and 69 % der initialen Leistung and 82 % der initialen Leistung and 83 % der initialen Leistung
Interstitielles Volumen [2]: 129 µL/g and 153 µL/g and 145 µL/g and 148 µL/g and 169 µL/g
Koronarfluß [% des Basalflusses] [2]: 88 % des Basalflusses and 77 % des Basalflusses and 73 % des Basalflusses and 81 % des Basalflusses and 87 % des Basalflusses
protektive Wirkung: keine protektive Wirkung

Reference: EP1100539B1, “COMBINATION OF ACTIVE SUBSTANCES, ESPECIALLY FOR THE PROPHYLAXIS AND THERAPY OF ISCHAEMIC ORGANIC LESIONS AND REPERFUSION SYNDROMES” (Vascular Biotech GmbH, priority 1998, dated 2000)
